The source of these data is ChEMBL document CHEMBL1201862, “PubChem BioAssay data set” (2004).

Molecules are shown by their SMILES.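 Assay format: 96-well plates, 48-hour exposure. The concentration for 50% growth inhibition is given as GI50.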 Active and inactive are the calls of the source. Rule as the data show it: active = GI50 up to about 1.1 µM and inactive = higher. A value given as a limit tells only on which side of the number the result lay.

Some test systems named below: MDA-N; OVCAR-8; SF-539; HOP-62; NCI/ADR-RES; Hs-578T; SNB-19; NCI-H226; 786-0; NCI-H23; BT-549; SF-268; K562; HCT-116; OVCAR-4; SK-MEL-5; CCRF-CEM; RPMI-8226; IGROV-1; NCI-H522.
What all share (assay): growth of human tumour cells (NCI), 48 h

With `CSc1scc2c1/C(=N/NC(N)=O)CCC2`, the GI50 in the assay with MDA-N is 45.3 µM (inactive); in the assay with OVCAR-8, > 100 µM (inactive); with SF-539, > 100 µM (inactive); with HOP-62 it was > 100 µM (inactive); in the assay with NCI/ADR-RES it was 20.1 µM (inactive); in the assay with Hs-578T, 82.6 µM (inactive). Also, the GI50 was > 100 µM (inactive) with SNB-19; 22.4 µM (inactive) with NCI-H226; > 100 µM (inactive) with 786-0; > 100 µM (inactive) in the assay on NCI-H23; 80 µM (inactive) in the assay on BT-549; 38.5 µM (inactive) in the assay with SF-268. Further, the GI50 in the assay on K562 is > 100 µM (inactive); in the assay with HCT-116, 70 µM (inactive); in the assay on OVCAR-4, > 100 µM (inactive); in the assay on SK-MEL-5, 41.1 µM (inactive); in the assay with CCRF-CEM it was 41.1 µM (inactive); with RPMI-8226, 88.1 µM (inactive).
Turning to `COc1cc(COC(=O)N2CSCC2C(=O)O)c([N+](=O)[O-])cc1OC` (stereo unspecified), the GI50 with MDA-N, in the assay on OVCAR-8, in the assay on SF-539, in the assay on HOP-62, in the assay on NCI/ADR-RES and in the assay on Hs-578T was > 100 µM (inactive) each time. Also, the GI50 in the assay with SNB-19, in the assay with NCI-H226, with 786-0, in the assay with NCI-H23, in the assay on IGROV-1 and in the assay on BT-549 was > 100 µM (inactive) in each case. Besides, the GI50 with SF-268, in the assay with K562, in the assay with HCT-116, in the assay on SK-MEL-5, in the assay on CCRF-CEM and in the assay with RPMI-8226 was > 100 µM (inactive) each time.
On to `CCCCOC(=O)c1cc(C(=CCC[C@H]2CC[C@@]3(C)[C@@H](CC[C@@H]4[C@@H]3CC[C@]3(C)[C@@H](C(C)CCCC(C)C)CC[C@@H]43)C2)c2cc(Cl)c(O)c(C(=O)OCCCC)c2)cc(Cl)c1O` (stereo partly specified), for which the GI50 in the assay on MDA-N, in the assay on OVCAR-8, in the assay with HOP-62, with NCI/ADR-RES, in the assay on Hs-578T and in the assay on SNB-19 was > 50 µM (inactive) in each case. The GI50 in the assay on NCI-H226, in the assay on 786-0, in the assay on NCI-H23, with IGROV-1, in the assay on BT-549 and in the assay with SF-268 was > 50 µM (inactive) in each case. The GI50 was > 5 µM (inactive) in the assay on K562; > 50 µM (inactive) in the assay on HCT-116; > 50 µM (inactive) with OVCAR-4; > 50 µM (inactive) in the assay on SK-MEL-5; > 50 µM (inactive) in the assay on CCRF-CEM; > 50 µM (inactive) with RPMI-8226.
Consider `O=C(O)C1C2CCC(O2)C1C(=O)NCc1cccnc1` (stereo unspecified), for which the GI50 with MDA-N, in the assay on SF-539, in the assay with HOP-62, in the assay on NCI/ADR-RES, in the assay with Hs-578T and in the assay on SNB-19 was > 100 µM (inactive) throughout. In addition, the GI50 in the assay with 786-0, in the assay on NCI-H23, in the assay with BT-549, in the assay with NCI-H522, with HCT-116 and in the assay on OVCAR-4 was > 100 µM (inactive) throughout. Further, the GI50 with SK-MEL-5, with CCRF-CEM and in the assay with RPMI-8226 was > 100 µM (inactive) throughout.
Regarding `CCN(CC)CCC(=O)c1ccc(Oc2ccc(C)cc2)cc1`, the GI50 is 17.7 µM (inactive) with MDA-N; 19.8 µM (inactive) with OVCAR-8; 18.8 µM (inactive) with SF-539; 19.1 µM (inactive) in the assay on HOP-62; 23 µM (inactive) in the assay with NCI/ADR-RES; 23.4 µM (inactive) with Hs-578T. The GI50 in the assay on SNB-19 is 18.5 µM (inactive); in the assay with NCI-H226, 35.2 µM (inactive); in the assay with 786-0, 16.5 µM (inactive); in the assay on NCI-H23, 17.7 µM (inactive); with IGROV-1, 20.1 µM (inactive); in the assay with BT-549, 18 µM (inactive). Moreover, the GI50 in the assay with SF-268 is 18.8 µM (inactive); in the assay on K562 it was 30.5 µM (inactive); in the assay on HCT-116 it was 17.3 µM (inactive); in the assay with OVCAR-4 it was 24.4 µM (inactive); with CCRF-CEM it was 26.3 µM (inactive); in the assay with RPMI-8226, 7.29 µM (inactive).
For the compound `O=C(O)c1ccccc1NC(=S)c1ccccc1`, the GI50 in the assay with MDA-N is 38.7 µM (inactive); in the assay on OVCAR-8, 33.9 µM (inactive); in the assay with SF-539, 44.4 µM (inactive); in the assay on HOP-62 it was 50.4 µM (inactive); in the assay on NCI/ADR-RES, 51.1 µM (inactive); in the assay on Hs-578T it was 53.7 µM (inactive). Further, the GI50 in the assay with SNB-19 is 48.5 µM (inactive); in the assay with 786-0, 47.4 µM (inactive); in the assay on NCI-H23, 80.9 µM (inactive); in the assay with IGROV-1 it was 25.1 µM (inactive); in the assay on BT-549, 33 µM (inactive); in the assay on SF-268 it was 64 µM (inactive). The GI50 with NCI-H522 was 13.5 µM (inactive); with K562, 39.2 µM (inactive); in the assay on HCT-116, 48.3 µM (inactive); with OVCAR-4 it was 0.0592 µM (active); in the assay on SK-MEL-5, 38.5 µM (inactive); in the assay on CCRF-CEM, 45.5 µM (inactive). For the same compound, the GI50 in the assay on RPMI-8226 is 28.2 µM (inactive).
Take `C=C1CC[C@]2(C)[C@H](CC[C@@]34C[C@@H](CC[C@H]32)[C@@H](C(=O)O)C4)C1(C)C`: the GI50 in the assay with MDA-N was > 12.5 µM (inactive); in the assay on OVCAR-8 it was > 12.5 µM (inactive); in the assay with SF-539 it was 6.19 µM (inactive); in the assay on HOP-62, 5.36 µM (inactive); with NCI/ADR-RES it was > 12.5 µM (inactive); in the assay with Hs-578T, 6.68 µM (inactive). Moreover, the GI50 is > 12.5 µM (inactive) with SNB-19; > 12.5 µM (inactive) with NCI-H226; 7.83 µM (inactive) with 786-0; > 12.5 µM (inactive) in the assay on NCI-H23; > 12.5 µM (inactive) with IGROV-1; > 12.5 µM (inactive) in the assay on BT-549. In addition, the GI50 in the assay on K562 was 4.21 µM (inactive); in the assay with HCT-116, > 12.5 µM (inactive); in the assay with OVCAR-4, > 12.5 µM (inactive); in the assay on SK-MEL-5 it was 8.24 µM (inactive); in the assay with CCRF-CEM, 7.05 µM (inactive).
With `CCOC(=O)c1c(NS(=O)(=O)c2ccccc2)sc2c1CCCC2`, the GI50 in the assay on MDA-N was > 100 µM (inactive); in the assay on OVCAR-8, 56.8 µM (inactive); in the assay with SF-539, > 100 µM (inactive); with HOP-62 it was 46.5 µM (inactive); in the assay with NCI/ADR-RES, 62.1 µM (inactive); in the assay with Hs-578T it was 82.8 µM (inactive). Further, the GI50 was 93.1 µM (inactive) with SNB-19; > 100 µM (inactive) in the assay with NCI-H226; 80.5 µM (inactive) in the assay with 786-0; > 100 µM (inactive) in the assay with NCI-H23; 54.8 µM (inactive) in the assay with IGROV-1; > 100 µM (inactive) in the assay on BT-549. The GI50 with SF-268 was 64.9 µM (inactive); in the assay with K562 it was 30.8 µM (inactive); with HCT-116 it was 37.7 µM (inactive); in the assay on SK-MEL-5 it was 74.5 µM (inactive); in the assay on CCRF-CEM it was 25.5 µM (inactive); in the assay with RPMI-8226, 26.9 µM (inactive).
For the compound `CC#CC(O)(C(=O)OCCCN(C)C)C1CCCCC1` (stereo unspecified), the GI50 in the assay on MDA-N, in the assay with OVCAR-8, in the assay on SF-539, in the assay on HOP-62, with NCI/ADR-RES and in the assay on Hs-578T was > 100 µM (inactive) in each case. In addition, the GI50 with SNB-19, in the assay with NCI-H226, in the assay with 786-0, in the assay on NCI-H23, in the assay with IGROV-1 and with BT-549 was > 100 µM (inactive) each time. Besides, the GI50 with SF-268, in the assay with K562, in the assay on HCT-116, in the assay on SK-MEL-5, in the assay with CCRF-CEM and with RPMI-8226 was > 100 µM (inactive) each time.
As to `O=C(O)CCO/N=C1/C(=C2/C(=O)Nc3ccccc32)Nc2ccccc21`, the GI50 in the assay with MDA-N was 28.8 µM (inactive); in the assay on OVCAR-8 it was 38.1 µM (inactive); with SF-539, 38.3 µM (inactive); with HOP-62, 26.4 µM (inactive); in the assay on NCI/ADR-RES it was 42.2 µM (inactive); in the assay with Hs-578T, 21.1 µM (inactive). Besides, the GI50 in the assay on SNB-19 was 40.5 µM (inactive); in the assay with 786-0, 21.5 µM (inactive); with NCI-H23 it was 17.7 µM (inactive); in the assay on IGROV-1, 11.9 µM (inactive); with BT-549, 24.5 µM (inactive); in the assay with SF-268, 26.1 µM (inactive). For the same compound, the GI50 is 50.6 µM (inactive) in the assay on NCI-H522; 36.7 µM (inactive) with K562; 12.3 µM (inactive) with HCT-116; 26.2 µM (inactive) with OVCAR-4; 13.4 µM (inactive) with SK-MEL-5; 13.8 µM (inactive) in the assay with CCRF-CEM. In addition, the GI50 with RPMI-8226 was 42.2 µM (inactive).
`CC(=O)O[C@H]1C(=O)O[C@@H]2C[C@H]3C(C)=CC(=O)[C@@H](O)[C@]3(C)[C@H]3[C@@]4(O)OC[C@]32[C@@H]1[C@@H](C)[C@H]4O`: the GI50 in the assay on MDA-N was 0.0211 µM (active); in the assay on OVCAR-8, 0.0444 µM (active); in the assay on SF-539, 0.0246 µM (active); with HOP-62, 0.0498 µM (active); in the assay with NCI/ADR-RES it was 2.21 µM (inactive); in the assay with Hs-578T, 0.0175 µM (active). Further, the GI50 with 786-0 was 0.0238 µM (active); in the assay on NCI-H23 it was 0.0268 µM (active); with IGROV-1, 0.0279 µM (active); with BT-549, 0.0312 µM (active); in the assay on SF-268, 0.0432 µM (active); in the assay with NCI-H522 it was 0.0243 µM (active). In addition, the GI50 with K562 is 0.0266 µM (active); in the assay on HCT-116 it was 0.0234 µM (active); in the assay with OVCAR-4, 0.0577 µM (active); with SK-MEL-5 it was 0.0247 µM (active); with CCRF-CEM, 0.0328 µM (active); in the assay with RPMI-8226 it was 0.0286 µM (active).
